Results on 9 compounds are retold here after patent publication US6083974A, “Benzothiophenecarboxamide derivatives and PGD2 antagonists comprising them” (Shionogi & Co., Ltd., priority 1996, dated 2000).

Assay [1] has as its target T1, PGD2 receptor (Homo sapiens, UniProt Q13258).
T1 construct: A suspension adjusted to contain platelet at a final concentration of; endogenous in cells; host or cells: washed human platelets from peripheral blood of a healthy volunteer
T1 sequence (Q13258 1-359): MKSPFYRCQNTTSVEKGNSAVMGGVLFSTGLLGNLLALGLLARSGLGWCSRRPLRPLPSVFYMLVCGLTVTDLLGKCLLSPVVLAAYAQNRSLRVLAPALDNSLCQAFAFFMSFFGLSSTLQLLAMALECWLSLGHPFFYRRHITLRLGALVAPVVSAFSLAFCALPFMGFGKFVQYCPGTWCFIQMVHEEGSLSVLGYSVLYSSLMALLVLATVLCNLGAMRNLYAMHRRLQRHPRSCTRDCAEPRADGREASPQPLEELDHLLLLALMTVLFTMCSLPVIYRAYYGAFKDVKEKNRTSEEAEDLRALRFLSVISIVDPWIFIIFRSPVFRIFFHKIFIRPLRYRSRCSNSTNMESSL
As to the kind of experiment: Binding to PGD2 Receptor (inhibition of [3H]PGD2 binding to human platelet membrane fraction). The conditions noted are these: human platelet membrane fraction (0.1 mg), 5 nM [3H]PGD2, pH 7.4, 4° C., 90 min. The procedure: (1) Preparation of Human Platelet Membrane Fraction
Blood sample was obtained using a plastic syringe containing 3.8% sodium citrate from the vein of healthy volunteers (adult male and female), put into a plastic test tube and mixed gently by rotation. The sample was then centrifuged at 1800 rpm, 10 min at room temperature, and the supernatant containing PRP (platelet-rich plasma) was collected. The PRP was recentrifuged at2300 rpm, 22 min at room temperature to obtain platelets. The platelets were homogenized using a homogenizer (Ultra-Turrax) followed by centrifugation 3 times at 20,000 rpm, 10 min at 4° C. to obtain a platelet membrane fraction. After protein determination, the membrane fraction was adjusted to 2 mg/ml and preserved in a refrigerator at -80° C. until use.
(2) Binding to PGD2 Receptor
To a binding-reaction solution (50 mM Tris/HCl, pH 7.4, 5 mM MgCl2) (0.2 ml) were added to the human platelet membrane fraction (0.1 mg) and 5 nM [^3 H]PGD2 (115 Ci/mmol), and reacted at 4° C. for 90 min. After the reaction completed, the reaction mixture was filtered through a glass fiber filter paper, washed several times with cooled saline, and measured the radioactivity retained on the filter paper. The specific binding was calculated by subtracting the non-specific binding (the binding in the presence of 10 μM PGD2) from the total binding. The inhibitory activity of each compound was expressed as the concentration required for 50% inhibition (IC50), which was determined by depicting a substitution curve by plotting the binding ratio (%) in the presence of each compound, where the binding ratio in the absence of a test compound is 100%.

Assay [2] addresses T1, PGD2 receptor. Put plainly: Antagonistic activity against PGD2 receptor using human platelet (inhibition of PGD2-induced cAMP increase). The conditions noted are these: human washed platelets, 0.1 μM PGD2, 3-isobutyl-1-methylxanthine 0.5 mM, 37° C.; read-out: IC50, inhibition of cAMP increased by PGD2. It is filed as cell-based. The procedure: Evaluation of Antagonistic Activity Against PGD2 Receptor Using Human Platelet
Peripheral blood was obtained from a healthy volunteer using a syringe in which 1/9 volume of citric acid/dextrose solution has been previously added. The syringe was subjected to centrifugation at 180 g for 10 min to obtain the supernatant (PRP:platelet rich plasma). the resultant PRP was washed 3 times with a washing buffer and the number of platelet was counted with a micro cell counter. A suspension adjusted to contain platelet at a final concentration of 5×10^8 /ml was warmed at 37° C., and then subjected to the pre-treatment with 3-isobutyl-1-methylxanthine (0.5 mM) for 5 min. To the suspension was added a test compound diluted at various concentration. Ten-minute later, the reaction was induced by the addition of 0.1 μM PGD2 and , 2-minute later, stopped by the addition of hydrochloric acid. The platelet was destroyed with an ultrasonic homogenizer. After centrifugation, the cAMP in the supernatant was determined by radioummunoassay. PGD2 receptor antagonism of a drug was evaluated as follows. The inhibition rate regarding cAMP increased by the addition of PGD2 was determined at individual concentration, and then the concentration of the drug required for 50% inhibition (IC50) was calculated.

Assay [3] relates to eosinophils. Put plainly: Infiltration of eosinophils in the nasal cavity by an antigen challenge. It is filed as in vivo. The following applies: guinea pig, oral 1, 3 and 10 mg/kg, 1 hr before antigen challenge; marked columns not given. How it is done:
Activity on Infiltration of Eosionophils in the Nasal Cavity by an Antigen Challenge
To a Hartley male guinea pig was injected intraperitoneally cyclophosphamide (30 mg/kg), after 2 day 1 ml of suspension containing 1 mg of ovalbumin (OVA) and 100 mg of aluminum hydroxide was injected intraperitoneally. After 3 weeks, 1 ml of mixture of OVA (10 μg) and aluminum hydroxide (100 mg) was intraperitoneally injected as additional immunization to sensitize systemically. After the lapse of 3 weeks, local sensitization, each 10 μl of 1% OVA solution was dripped in both nasal cavities four times at 2-4 day intervals. After 5-7 days from the final sensitization, nasal antigen challenge was performed by dripping 10 μl of 1% OVA solution to the guinea pigs in the both nasal cavity. Five hours after nasal challenge, the guinea pigs were exsanguinated under the anesthetization. The nasal airways were washed by infusing 10 ml of saline, and the washings were collected. The washing were centrifuged, the cell pellets were resuspended in 100 μl of saline, and the total cells were counted by the Turk stain. Then smear samples were prepared, and the cells were classified after the May-Grunwald-Giemsa stain. The eosinophil number was determined by multiplying the rate of eosinophils with the total cells. […]

In assay [4] the test system is Hartley male guinea pig. As to the kind of experiment: Nasal blocking model (intranasal pressure after OVA antigen exposure). It is filed as in vivo. The following applies: oral 60 min before 3% OVA antigen exposure, dose not given. How it is done: Experiment Using Nasal Blocking Model
The method used for measuring the intranasal pressure for evaluating the anti-nasal blockage using guinea pigs is described below.
A 1% ovalbumin (OVA) solution was treated with an ultrasonic nebulizer to obtain an aerosol. Hartley male guinea pig was sensitized by inhaling twice the aerosol for 10 min at one-week interval. Seven-day after the sensitization, the guinea pig was exposed to an antigen to initiate the reaction. Briefly, the trachea was incised under the anesthesia with pentobarbital (30 mg/kg, i.p.) and cannulas were inserted at the pulmonary side was connected with an artificial respirator that provides 4 ml air 60 times/min. After arresting the spontaneous respiration of the guinea pig with Gallamin (2 mg/kg, i.v.), air was supplied to the snout side with an artificial respirator at the frequency of 70 times/min, and the flow rate of 4 ml air/time, and the atmospheric pressure required for the aeration was measured by the use of a transducer fitted at the branch. The measurement was used as a parameter of the nasal cavity resistance. The exposure of an antigen was carried out by generating aerosol of 3% OVA solution for 3 min between the respirator and the nasal cavity cannula. The test drug was administered orally 60 min before the antigen exposure. […]

`CC1(C)[C@H]2C[C@H](C/C=C\CCCC(=O)O)[C@@H](NC(=O)c3csc4ccc(Br)cc34)[C@@H]1C2` [IA-a-2] gave an IC50 in assay [1] of 3.3 nM.

Take `CC1(C)[C@H]2C[C@H](C/C=C\CCCC(=O)O)[C@@H](NC(=O)c3csc4ccc(O)cc34)[C@@H]1C2` [IA-a-5]: the IC50 in assay [2] was determined as 1.3 nM; in assay [1] it was 0.4 nM. Moreover, in assay [3], the “inhibition of infiltration of eosinophils in the nasal cavity, significance versus vehicle (FIG. 1)” value was “significantly different from vehicle at p<0.01”. Moreover, in assay [4], the “Inhibitory Rate, intranasal pressure AUC for 30 min vs vehicle” value was 96%.

With `CC1(C)[C@H]2C[C@H](C/C=C\CCCC(=O)O)[C@@H](NC(=O)c3csc4cc(O)ccc34)[C@@H]1C2` [IA-a-7], the IC50 turned out to be 2.8 nM in assay [2] and 1.3 nM in assay [1].

In the case of `CC(=O)Oc1ccc2scc(C(=O)N[C@@H]3[C@@H](C/C=C\CCCC(=O)O)C[C@H]4C[C@@H]3C4(C)C)c2c1` [IA-a-9], the IC50 in assay [2] was 0.21 nM; in assay [1] it was 6.5 nM.

Consider `CC1(C)[C@H]2C[C@H](C/C=C/CCCC(=O)O)[C@@H](NC(=O)c3csc4ccc(O)cc34)[C@@H]1C2` [IA-a-17], for which, in assay [2], the IC50 was found to be 28 nM.

For the compound `CC1(C)[C@H]2C[C@@H](C/C=C\CCCC(=O)O)[C@@H](NC(=O)c3csc4ccc(O)cc34)[C@@H]1C2` [IA-c-1], the IC50 in assay [2] stood at 55 nM.

Regarding `CC1(C)[C@H]2C[C@@H](C/C=C/CCCC(=O)O)[C@@H](NC(=O)c3csc4ccc(O)cc34)[C@@H]1C2` [IA-c-2], the IC50 in assay [2] amounted to 61 nM.

As for `CC1(C)[C@H]2C[C@H](NC(=O)c3csc4ccccc34)[C@@H](C/C=C\CCCC(=O)O)[C@@H]1C2` [IB-a'-1], in assay [2], the IC50 came out at 41 nM.

For `CC1(C)[C@H]2C[C@@H](NC(=O)c3csc4ccc(O)cc34)[C@H](C/C=C\CCCC(=O)O)[C@@H]1C2` [IB-b'-3], the IC50 in assay [2] came out at 57 nM.
